Reference: ChEMBL document CHEMBL3885861, “Open TG-GATES”

Species: Rattus norvegicus
Experiment: Open TG-GATES - Regimen: Single
Assay type: toxicity, organism-based, Sprague-Dawley
Parameters: regimen Single, gender Male, age 6 weeks
Settings: in vivo, po, 0 mg/kg, route gavage, dose level Control; for APTT / Bas / Eos / Fbg / Hb / Ht / Lym / MCH / MCHC / MCV / Mono / Neu / PT / Plat / RBC / Ret / WBC: tissue Blood; for KIDNEY_L / KIDNEY_R / KIDNEY_TOTAL: tissue Kidney; for LIVER: tissue Liver; for A/G / ALP / ALT / AST / BUN / CRE / Ca / Cl / DBIL / GLC / IP / K / LDH / Na / PL / RALB / TBIL / TC / TG / TP / gamma-GTP: tissue Plasma

CCc1oc2ccccc2c1C(=O)c1cc(Br)c(O)c(Br)c1 [BENZBROMARONE]
TERMINAL_BW (3 h): 217.1 g
APTT (3 h): 17.3 s
Bas (3 h): 0%
Eos (3 h): 1%
Fbg (3 h): 226.8 mg/dL
Hb (3 h): 13.8 g/dL
Ht (3 h): 40.9%
Lym (3 h): 76.4%
MCH (3 h): 22.2 pg
MCHC (3 h): 33.8%
MCV (3 h): 65.9 fL
Mono (3 h): 7.4%
Neu (3 h): 15.2%
PT (3 h): 11.9 s
Plat (3 h): 104.6 x10_4/uL
RBC (3 h): 621.4 x10_4/ul
Ret (3 h): 7.9%
WBC (3 h): 127.8 x10_2/uL
KIDNEY_L (3 h): 0.9 g
KIDNEY_R (3 h): 0.9 g
KIDNEY_TOTAL (3 h): 1.9 g
LIVER (3 h): 10.1 g
A/G (3 h): 2
ALP (3 h): 745.6 IU/L
ALT (3 h): 38.4 IU/L
AST (3 h): 65.4 IU/L
BUN (3 h): 12.2 mg/dL
CRE (3 h): 0.6 mg/dL
Ca (3 h): 10.8 mg/dL
Cl (3 h): 104 meq/L
DBIL (3 h): 0.046 mg/dL
GLC (3 h): 191 mg/dL
IP (3 h): 9.7 mg/dL
K (3 h): 4.8 meq/L
LDH (3 h): 81.6 IU/L
Na (3 h): 138.8 meq/L
PL (3 h): 143.6 mg/dL
RALB (3 h): 3.8 g/dL
TBIL (3 h): 0.3 mg/dL
TC (3 h): 75 mg/dL
TG (3 h): 84.2 mg/dL
TP (3 h): 5.7 g/dL
gamma-GTP (3 h): 1.8 IU/L
TERMINAL_BW (6 h): 212.5 g
APTT (6 h): 16 s
Bas (6 h): 0%
Eos (6 h): 1%
Fbg (6 h): 230.2 mg/dL
Hb (6 h): 14.1 g/dL
Ht (6 h): 41.9%
Lym (6 h): 79.8%
MCH (6 h): 21.8 pg
MCHC (6 h): 33.6%
MCV (6 h): 65 fL
Mono (6 h): 6.2%
Neu (6 h): 13.6%
PT (6 h): 12.2 s
Plat (6 h): 103.2 x10_4/uL
RBC (6 h): 645.6 x10_4/ul
Ret (6 h): 7.9%
WBC (6 h): 125.2 x10_2/uL
KIDNEY_L (6 h): 1 g
KIDNEY_R (6 h): 1 g
KIDNEY_TOTAL (6 h): 2.1 g
LIVER (6 h): 9.9 g
A/G (6 h): 2
ALP (6 h): 690.6 IU/L
ALT (6 h): 28.2 IU/L
AST (6 h): 57.4 IU/L
BUN (6 h): 10.6 mg/dL
CRE (6 h): 0.5 mg/dL
Ca (6 h): 10.5 mg/dL
Cl (6 h): 104.6 meq/L
DBIL (6 h): 0.006 mg/dL
GLC (6 h): 182.6 mg/dL
IP (6 h): 9.7 mg/dL
K (6 h): 5.2 meq/L
LDH (6 h): 82.8 IU/L
Na (6 h): 138.4 meq/L
PL (6 h): 142.2 mg/dL
RALB (6 h): 3.8 g/dL
TBIL (6 h): 0.4 mg/dL
TC (6 h): 72.4 mg/dL
TG (6 h): 69.2 mg/dL
TP (6 h): 5.7 g/dL
gamma-GTP (6 h): 1.2 IU/L
TERMINAL_BW (9 h): 208.2 g
APTT (9 h): 16.2 s
Bas (9 h): 0%
Eos (9 h): 0.8%
Fbg (9 h): 234.8 mg/dL
Hb (9 h): 13.6 g/dL
Ht (9 h): 40.6%
Lym (9 h): 74.6%
MCH (9 h): 21.6 pg
MCHC (9 h): 33.5%
MCV (9 h): 64.4 fL
Mono (9 h): 5.2%
Neu (9 h): 19.6%
PT (9 h): 12.2 s
Plat (9 h): 105.2 x10_4/uL
RBC (9 h): 631 x10_4/ul
Ret (9 h): 7.4%
WBC (9 h): 95.5 x10_2/uL
KIDNEY_L (9 h): 1 g
KIDNEY_R (9 h): 1 g
KIDNEY_TOTAL (9 h): 2 g
LIVER (9 h): 9.1 g
A/G (9 h): 1.9
ALP (9 h): 623.4 IU/L
ALT (9 h): 27 IU/L
AST (9 h): 58.8 IU/L
BUN (9 h): 11.2 mg/dL
CRE (9 h): 0.6 mg/dL
Ca (9 h): 10 mg/dL
Cl (9 h): 105.2 meq/L
DBIL (9 h): 0.008 mg/dL
GLC (9 h): 181.2 mg/dL
IP (9 h): 11 mg/dL
K (9 h): 5 meq/L
LDH (9 h): 86.8 IU/L
Na (9 h): 139.4 meq/L
PL (9 h): 126.4 mg/dL
RALB (9 h): 3.8 g/dL
TBIL (9 h): 0.3 mg/dL
TC (9 h): 71.6 mg/dL
TG (9 h): 42.8 mg/dL
TP (9 h): 5.8 g/dL
gamma-GTP (9 h): 1.2 IU/L
TERMINAL_BW (24 h): 225.6 g
APTT (24 h): 15.9 s
Bas (24 h): 0%
Eos (24 h): 1.2%
Fbg (24 h): 220.2 mg/dL
Hb (24 h): 13.9 g/dL
Ht (24 h): 41.4%
Lym (24 h): 75%
MCH (24 h): 21.4 pg
MCHC (24 h): 33.5%
MCV (24 h): 63.7 fL
Mono (24 h): 6.4%
Neu (24 h): 17.4%
PT (24 h): 11.9 s
Plat (24 h): 115 x10_4/uL
RBC (24 h): 650 x10_4/ul
Ret (24 h): 7.2%
WBC (24 h): 109 x10_2/uL
KIDNEY_L (24 h): 1 g
KIDNEY_R (24 h): 1 g
KIDNEY_TOTAL (24 h): 2 g
LIVER (24 h): 10.9 g
A/G (24 h): 2.1
ALP (24 h): 682.4 IU/L
ALT (24 h): 32.2 IU/L
AST (24 h): 61 IU/L
BUN (24 h): 16.8 mg/dL
CRE (24 h): 0.6 mg/dL
Ca (24 h): 10.4 mg/dL
Cl (24 h): 104.6 meq/L
DBIL (24 h): 0.006 mg/dL
GLC (24 h): 188.8 mg/dL
IP (24 h): 7.8 mg/dL
K (24 h): 5.3 meq/L
LDH (24 h): 91.6 IU/L
Na (24 h): 138.8 meq/L
PL (24 h): 149.4 mg/dL
RALB (24 h): 4 g/dL
TBIL (24 h): 0.3 mg/dL
TC (24 h): 81 mg/dL
TG (24 h): 100.2 mg/dL
TP (24 h): 5.9 g/dL
gamma-GTP (24 h): 1 IU/L
